≈ marks a conversion by molar mass, not a printed value.
Experiments:
[1] = tested on: Mycobacterium tuberculosis; experiment: microbe, parasite or virus in culture; type: functional
[2] = tested on: Mycobacterium tuberculosis; experiment: microbe, parasite or virus in culture; type: functional; remark: listed apart in the source

SMILES: CCCc1cc(=O)oc2c1c1c(c3oc(C(=O)OCC)cc32)C=CC(C)(C)O1
- MIC [1]: > 50 µg/mL
- MIC [2]: > 50 µg/mL

SMILES: CCCc1cc(=O)oc2c1c1c(c3oc(C(=O)O)cc32)C=CC(C)(C)O1
- MIC [1]: > 50 µg/mL
- MIC [2]: > 50 µg/mL

SMILES: CCCc1cc(=O)oc2c1c1c(c3oc(C(=O)NN)cc32)C=CC(C)(C)O1
- MIC [1]: > 50 µg/mL
- MIC [2]: 50 µg/mL (≈ 136 µM)

SMILES: CCCc1cc(=O)oc2c1c1c(c3oc(C(=O)NNC(=O)c4ccncc4)cc32)C=CC(C)(C)O1
- MIC [1]: > 50 µg/mL
- MIC [2]: 25 µg/mL (≈ 52.8 µM)

SMILES: CCCc1cc(=O)oc2c1c(OCCN1CCOCC1)cc1oc(C(=O)OCC)cc12
- MIC [1]: > 50 µg/mL
- MIC [2]: > 50 µg/mL

SMILES: CCCc1cc(=O)oc2c1c(OCCN1CCOCC1)cc1oc(C(=O)O)cc12
- MIC [1]: > 50 µg/mL
- MIC [2]: > 50 µg/mL

SMILES: CCCc1cc(=O)oc2c1c(OCCN1CCOCC1)cc1oc(C(=O)NN)cc12
- MIC [1]: > 50 µg/mL
- MIC [2]: > 50 µg/mL

SMILES: CCCc1cc(=O)oc2c1c1c(c3oc(NC(=O)OCC)cc32)C=CC(C)(C)O1
- MIC [1]: > 50 µg/mL
- MIC [2]: > 50 µg/mL

SMILES: CCCc1cc(=O)oc2c1c1c(c3oc(C#N)cc32)C=CC(C)(C)O1
- MIC [1]: > 50 µg/mL
- MIC [2]: > 50 µg/mL

SMILES: CCCc1cc(=O)oc2c1c1c(c3oc(C(=O)N=[N+]=[N-])cc32)C=CC(C)(C)O1
- MIC [1]: > 50 µg/mL
- MIC [2]: > 50 µg/mL

SMILES: CCCc1cc(=O)oc2c1c(OCCN1CCOCC1)cc1oc(C#N)cc12
- MIC [1]: > 50 µg/mL
- MIC [2]: > 50 µg/mL

SMILES: CCCc1cc(=O)oc2c1c(OCCN1CCOCC1)cc1oc(/C(N)=N\O)cc12
- MIC [1]: > 50 µg/mL
- MIC [2]: > 50 µg/mL

SMILES: CCCc1cc(=O)oc2c1c(OCCN1CCOCC1)cc1oc(C(=N)N)cc12
- MIC [1]: > 50 µg/mL
- MIC [2]: > 50 µg/mL

SMILES: CCCc1cc(=O)oc2c1c(OCCN1CCOCC1)cc1oc(-c3noc(=O)[nH]3)cc12
- MIC [1]: > 50 µg/mL
- MIC [2]: > 50 µg/mL

SMILES: CCCc1cc(=O)oc2c1c(OCCN1CCOCC1)cc1oc(-c3noc(C)n3)cc12
- MIC [1]: > 50 µg/mL
- MIC [2]: > 50 µg/mL

SMILES: CCCc1cc(=O)oc2c1c(OCCN1CCOCC1)cc1oc(-c3noc(C(F)(F)F)n3)cc12
- MIC [1]: > 50 µg/mL
- MIC [2]: > 50 µg/mL
